# Experimental data: paper PMC7216583 (Parasites & Vectors, 2020)
# Counter-ions that a name gives are not always drawn. Like-named read-outs stand apart in the source and are kept apart here.
# Key:
# [1] = target: Bcl-w; parameters: method as in library vendor description; conditions: ref library vendor description; cited from earlier work
# [2] = test system: Toxoplasma gondii RH-2F tachyzoites; assay: microbe, parasite or virus in culture; conditions: 72 h
# [3] = test system: VEGFR2; parameters: method as in S-inhibitor; conditions: ref S-inhibitor; cited from earlier work
# [4] = test system: EGFR; parameters: method as in S-inhibitor; conditions: ref S-inhibitor; cited from earlier work
# [5] = test system: HER2/ErbB2; parameters: method as in S-inhibitor; conditions: ref S-inhibitor; cited from earlier work
# [6] = test system: Flt; parameters: method as in S-inhibitor; conditions: ref S-inhibitor; cited from earlier work
# [7] = target: HIV-I integrase (IN); parameters: method as in S-inhibitor; conditions: ref S-inhibitor; cited from earlier work
# [8] = test system: Aβ40; parameters: method as in library vendor description; conditions: γ-secretase inhibitor; ref library vendor description; cited from earlier work
# [9] = test system: Aβ42; parameters: method as in library vendor description; conditions: γ-secretase inhibitor; ref library vendor description; cited from earlier work
# [10] = test system: PDK-1; parameters: method as in library vendor description; conditions: ref library vendor description; read-out: IC50 PDK-1; cited from earlier work
# [11] = test system: TBK1; parameters: method as in library vendor description; conditions: ref library vendor description; cited from earlier work
# [12] = test system: IKKε; parameters: method as in library vendor description; conditions: ref library vendor description; cited from earlier work
# [13] = test system: LPDE4; parameters: method as in S-inhibitor; conditions: ref S-inhibitor; cited from earlier work
# [14] = test system: HPDE4; parameters: method as in S-inhibitor; conditions: ref S-inhibitor; cited from earlier work
# [15] = test system: HCV NS5A; parameters: method as in S-inhibitor; conditions: ref S-inhibitor; cited from earlier work
# [16] = test system: HDAC3; parameters: method as in S-inhibitor; conditions: ref S-inhibitor; cited from earlier work
# [17] = test system: HDAC8; parameters: method as in S-inhibitor; conditions: ref S-inhibitor; cited from earlier work
# [18] = test system: microtubule; parameters: method as in library vendor description; conditions: ref library vendor description; cited from earlier work
# [19] = test system: microtubule; parameters: method as in S-inhibitor; conditions: ref S-inhibitor; cited from earlier work
# [20] = test system: ROCK1; parameters: method as in S-inhibitor; conditions: ref S-inhibitor; cited from earlier work
# [21] = test system: ROCK2; parameters: method as in S-inhibitor; conditions: ref S-inhibitor; cited from earlier work
# [22] = test system: mTOR; parameters: method as in library vendor description; conditions: ref library vendor description; cited from earlier work
# [23] = test system: PI3Kδ; parameters: method as in library vendor description; conditions: ref library vendor description; cited from earlier work
# [24] = test system: PI3Kγ; parameters: method as in library vendor description; conditions: ref library vendor description; cited from earlier work
# [25] = test system: PI3Kα; parameters: method as in library vendor description; conditions: ref library vendor description; cited from earlier work
# [26] = test system: PI3Kβ; parameters: method as in library vendor description; conditions: ref library vendor description; cited from earlier work
# [27] = target: PLK1 (Polo-like kinase 1); parameters: method as in S-inhibitor; conditions: ref S-inhibitor; cited from earlier work
# [28] = target: KSP (HsEg5); parameters: method as in S-inhibitor; conditions: ref S-inhibitor; cited from earlier work
# [29] = test system: PDGFRα; parameters: method as in S-inhibitor; conditions: ref S-inhibitor; cited from earlier work
# [30] = test system: c-Kit; parameters: method as in S-inhibitor; conditions: ref S-inhibitor; cited from earlier work
# [31] = test system: p38 MAPK; parameters: method as in S-inhibitor; conditions: ref S-inhibitor; cited from earlier work
# [32] = in vitro; conditions: human, Host viability (%) mean
# [33] = test system: Aurora B; parameters: method as in S-inhibitor; conditions: ref S-inhibitor; cited from earlier work
# [34] = test system: Aurora C; parameters: method as in S-inhibitor; conditions: ref S-inhibitor; cited from earlier work
# [35] = test system: CDK2; parameters: method as in S-inhibitor; conditions: ref S-inhibitor; cited from earlier work
# [36] = test system: CDK5; parameters: method as in S-inhibitor; conditions: ref S-inhibitor; cited from earlier work
# [37] = test system: CDK7; parameters: method as in S-inhibitor; conditions: ref S-inhibitor; cited from earlier work
# [38] = test system: PI3Kγ; conditions: read-out: IC50, PI3Kγ; ref S-inhibitor; cited from earlier work
# [39] = target: sterol C14ɑ demethylase; parameters: method as in library vendor description; conditions: ref library vendor description; cited from earlier work
# [40] = test system: JAK1; conditions: read-out: IC50, JAK1; ref S-inhibitor; cited from earlier work
# [41] = test system: JAK3; conditions: read-out: IC50, JAK3; ref S-inhibitor; cited from earlier work
# [42] = test system: MAO-B; parameters: method as in S-inhibitor; conditions: ref S-inhibitor; cited from earlier work
# [43] = target: Flk-1/KDR; parameters: method as in S-inhibitor; conditions: ref S-inhibitor; cited from earlier work
# [44] = target: PDGFRβ; parameters: method as in S-inhibitor; conditions: ref S-inhibitor; cited from earlier work
# [45] = test system: ROCK; parameters: method as in S-inhibitor; conditions: ref S-inhibitor; cited from earlier work
# [46] = target: farnesyltransferase (FTase); parameters: method as in S-inhibitor; conditions: ref S-inhibitor; cited from earlier work
# [47] = target: HCV polymerase; parameters: method as in S-inhibitor; conditions: ref S-inhibitor; cited from earlier work
# [48] = test system: Endothelin A (ETA); parameters: method as in S-inhibitor; conditions: ref S-inhibitor; cited from earlier work
# [49] = test system: Toxoplasma gondii RH-2F tachyzoites; conditions: preliminary screen, mean
# [50] = test system: human foreskin fibroblasts (HFFs)
# [51] = test system: VEGFR1; parameters: method as in library vendor description; conditions: ref library vendor description; cited from earlier work
# [52] = test system: VEGFR3; parameters: method as in library vendor description; conditions: ref library vendor description; cited from earlier work
# [53] = test system: Tie2; parameters: method as in library vendor description; conditions: ref library vendor description; cited from earlier work
# [54] = test system: Ron; parameters: method as in library vendor description; conditions: ref library vendor description; cited from earlier work
# [55] = read-out: Parasite inhibition (%) mean, preliminary screen, mean
# [56] = read-out: Parasite inhibition (%) mean
compound,measurement,setting,value
CC1(C)CCC(c2ccc(Cl)cc2)=C(CN2CCN(c3ccc(C(=O)NS(=O)(=O)c4ccc(N[C@H](CCN5CCOCC5)CSc5ccccc5)c(S(=O)(=O)C(F)(F)F)c4)cc3)CC2)C1 [ABT-263 (Navitoclax)],Ki,[1],≤ 1 nM
same,inhibition of growth at 5 µM,[2]; [55],33.5%
CCN1CCN(Cc2ccc(-c3cc4c(N[C@H](C)c5ccccc5)ncnc4[nH]3)cc2)CC1 [AEE788 (NVP-AEE788)],IC50,[3],77 nM
same,IC50,[4],2 nM
same,IC50,[5],6 nM
same,IC50,[6],59 nM
same,inhibition of growth at 5 µM,[2]; [55],-2.1%
Cn1c(N2CCCCS2(=O)=O)nc(C(=O)NCc2ccc(F)cc2)c(O)c1=O [BMS-707035],IC50,[7],15 nM
same,inhibition of growth at 5 µM,[2]; [55],0.2%
NC(=O)[C@@H](CCC(F)(F)F)N(Cc1ccc(-c2ncon2)cc1F)S(=O)(=O)c1ccc(Cl)cc1 [BMS-708163 (Avagacestat)],IC50,[8],0.3 nM
same,IC50,[9],0.27 nM
same,inhibition of growth at 5 µM,[2]; [55],8.7%
O=C(NCCCNc1nc(Nc2cccc(NC(=O)N3CCCC3)c2)ncc1I)c1cccs1 [BX-795],IC50,[10],111 nM
same,IC50,[11],6 nM
same,IC50,[12],41 nM
same,inhibition of growth at 5 µM,[2]; [55],0.7%
COc1ccc(C2(C#N)CCC(C(=O)O)CC2)cc1OC1CCCC1 (stereo not drawn) [Cilomilast (SB-207499)],IC50,[13],100 nM
same,IC50,[14],120 nM
same,inhibition of growth at 5 µM,[2]; [55],65.2%
COC(=O)N[C@H](C(=O)N1CCC[C@H]1c1ncc(-c2ccc(-c3ccc(-c4cnc([C@@H]5CCCN5C(=O)[C@@H](NC(=O)OC)C(C)C)[nH]4)cc3)cc2)[nH]1)C(C)C [Daclatasvir (BMS-790052)],EC50,[15],0.009 to 0.05 nM
same,inhibition of growth at 5 µM,[2]; [55],3.9%
Cc1cc(Cl)ccc1OCCCC(=O)NO [Droxinostat],IC50,[16],16900 nM
same,IC50,[17],1460 nM
same,inhibition of growth at 5 µM,[2]; [55],7.2%
C/C(=C\c1csc(C)n1)[C@@H]1C[C@@H]2O[C@@H]2CCC[C@H](C)[C@H](O)[C@@H](C)C(=O)C(C)(C)[C@@H](O)CC(=O)O1 [Epothilone A],EC0.01 microtubule-stabilizing,[18],Epothilone A is a Taxol-like microtubule-stabilizing agent with EC0.01 of 2 μM.
same,inhibition of growth at 5 µM,[2]; [55],20.4%
C/C(=C\c1csc(C)n1)[C@H]1C[C@@H]2O[C@]2(C)CCC[C@H](C)[C@H](O)[C@@H](C)C(=O)C(C)(C)[C@H](O)CC(=O)O1 [Epothilone B (EPO906)],"EC0.01, microtubule stabilization",[19],Epothilone B is a Taxol-like microtubule-stabilizing agent with EC0.01 of 1.8 μM.
same,inhibition of growth at 5 µM,[2]; [56],36.5%
CC1=C(C(=O)Nc2cc3cn[nH]c3cc2F)C(c2ccc(C(F)(F)F)cc2)CC(=O)N1 (stereo not drawn) [GSK429286A],IC50,[20],14 nM
same,IC50,[21],63 nM
same,inhibition of growth at 5 µM,[2]; [55],0.9%
O=C1NC(=O)/C(=C/c2ccc3nccc(-c4ccncc4)c3c2)S1 [GSK1059615],IC50,[22],12 nM
same,IC50,[23],2 nM
same,IC50,[24],5 nM
same,IC50,[25],0.4 nM
same,IC50,[26],0.6 nM
same,inhibition of growth at 5 µM,[2]; [55],40.6%
COc1ccc(S(=O)(=O)N(C(C)=O)c2ccccc2/C=C/c2cc[n+]([O-])cc2)cc1 [HMN-214],IC50,[27],118 nM
same,inhibition of growth at 5 µM,[2]; [55],-11.6%
Cc1ccc(C(=O)N(CCCN)[C@@H](c2nc3cc(Cl)ccc3c(=O)n2Cc2ccccc2)C(C)C)cc1 [Ispinesib (SB-715992)],Ki,[28],1.7 nM
same,inhibition of growth at 5 µM,[2]; [55],2.1%
COc1cc2nccc(Oc3ccc(NC(=O)Nc4ccc(F)cc4F)c(F)c3)c2cc1OC [Ki8751],IC50,[3],0.9 nM
same,IC50,[29],67 nM
same,IC50,[30],40 nM
same,inhibition of growth at 5 µM,[2]; [55],-45.8%
CC(C)(C)Cn1c(N)nc2ccc(-c3[nH]c(C(C)(C)C)nc3-c3ccc(F)cc3)nc21 [LY2228820],IC50,[31],7 nM
same,inhibition of growth at 5 µM,[2]; [55],-12.7%
CCc1cccc(CC)c1NC(=O)N1Cc2n[nH]c(NC(=O)c3ccc(N4CCN(C)CC4)cc3)c2C1 [PHA-680632],viability at 72 h,[32],45.2%
same,IC50,[33],135 nM
same,IC50,[34],120 nM
same,inhibition of growth at 5 µM,[2]; [55],88.8%
CC(C)CC(=O)Nc1[nH]nc2c1CN(C(=O)C1CCN(C)CC1)C2(C)C [PHA-793887],IC50,[35],8 nM
same,IC50,[36],5 nM
same,IC50,[37],10 nM
same,inhibition of growth at 5 µM,[2]; [55],0.6%
CC(=O)Nc1nc(C)c(-c2ccc(Cl)c(S(=O)(=O)NCCO)c2)s1 [PIK-93],IC50,[38],[…]
same,inhibition of growth at 5 µM,[2]; [56],1.5%
CC[C@@H]([C@H](C)O)n1ncn(-c2ccc(N3CCN(c4ccc(OC[C@@H]5CO[C@@](Cn6cncn6)(c6ccc(F)cc6F)C5)cc4)CC3)cc2)c1=O [Posaconazole],IC50,[39],0.25 nM
same,inhibition of growth at 5 µM,[2]; [55],0.6%
N#CC[C@H](C1CCCC1)n1cc(-c2ncnc3[nH]ccc23)cn1 [Ruxolitinib (INCB018424)],IC50,[40],[…]
same,inhibition of growth at 5 µM,[2]; [55],10.2%
C[C@H](NCc1ccc(OCc2cccc(F)c2)cc1)C(N)=O [Safinamide Mesylate (FCE28073)],IC50,[42],[…]
same,inhibition of growth at 5 µM,[2]; [55],5.9%
Cc1[nH]c(/C=C2\C(=O)Nc3ccccc32)c(C)c1CCC(=O)O [TSU-68 (SU6668)],Ki,[43],2100 nM
same,Ki,[44],8 nM
same,inhibition of growth at 5 µM,[2]; [55],2.8%
O=C(NCc1ccccc1)c1csc(Nc2ccncn2)n1 [Thiazovivin],IC50,[45],~500 nM
same,inhibition of growth at 5 µM,[2]; [55],-0.7%
Cn1cncc1[C@@](N)(c1ccc(Cl)cc1)c1ccc2c(c1)c(-c1cccc(Cl)c1)cc(=O)n2C [Tipifarnib (Zarnestra)],IC50,[46],0.6 nM
same,inhibition of growth at 5 µM,[2]; [55],6.5%
CC(C)(C)C#Cc1cc(N(C(=O)[C@H]2CC[C@H](C)CC2)[C@H]2CC[C@H](O)CC2)c(C(=O)O)s1 [VX-222],IC50,[47],940 to 1200 nM
same,inhibition of growth at 5 µM,[2]; [55],9.6%
COc1nc(C)cnc1NS(=O)(=O)c1cccnc1-c1ccc(-c2nnco2)cc1 [Zibotentan (ZD4054)],IC50,[48],21 nM
same,inhibition of growth at 5 µM,[2]; [55],1.8%
MGCD-265,Parasite inhibition (%) mean,[49],88.8%
same,Host viability (%) mean,[50],68.1%
same,IC50,[51],3 nM
same,IC50,[52],4 nM
same,IC50,[53],7 nM
same,IC50,[54],2 nM
